The results in this text go back to patent US11389407B2, “Cochleates and methods of using the same to enhance tissue penetration of pharmacologically active agent” (priority 2015, dated 2022).

Structures are written as SMILES. In brackets after ≈: the same amount, converted by molar mass.

This test deals with Candida albicans. The test can be described thus: Minimum inhibitory concentration (MIC). It counts as cell-based.

Turning to `C[C@@H]1[C@H](O)[C@@H](C)/C=C/C=C/C=C/C=C/C=C/C=C/C=C/[C@H](O[C@@H]2O[C@H](C)[C@@H](O)[C@H](N)[C@@H]2O)C[C@@H]2O[C@](O)(C[C@@H](O)C[C@@H](O)[C@H](O)CC[C@@H](O)C[C@@H](O)CC(=O)O[C@H]1C)C[C@H](O)[C@H]2C(=O)O` [AmB, amphotericin B], the “minimum inhibitory concentration (MIC)” value amounted to 0.25 µg/mL (≈ 0.271 µM).
